Patent US20060014677A1, “Method for maximizing efficacy and predicting and minimizing toxicity of calcineurin inhibitor compounds” (Isotechnika International Inc., priority 2004, published 2006)
In brackets after ≈: the same amount, converted by molar mass.

Key:
calcineurin = test: Calcineurin inhibition assay on whole blood lysates, PK-PD sigmoid Emax model (Study A, phase II); assay type: in vivo, human; conditions: FIG. 4A/4B; peak (C2) concentration vs % CNI
Method: At weeks 1, 6, and 12, serial whole blood samples were drawn and drug concentrations were determined. PK and PD were evaluated using standard non-compartmental analysis and a calcineurin inhibition assay. […] Whole blood lysates were evaluated for their ability to dephosphorylate a ^32P-labelled 19 amino acid peptide substrate in the presence of okadaic acid, a phosphatast type 1 and 2 inhibitor. Background phosphatase 2C activity (CsA and okadaic acid resistant activity) was determined and subtracted from each sample, with the assay performed in the presence and absence of excess added CsA. The remaining phosphatase activity was taken as calcineurin activity.
(§1) A direct PK-PD correlation was performed using a sigmoid Emax model.
AIC is the Akaike Information Criterion. It is a dimensionless “goodness of fit” parameter that is a modification of an ‘F-test.’ The lower the AIC number the better the fit. This relationship was constructed using concentrations from trough (C0) through hour 4 (C4).

clinical = conditions: human, in vivo
Method: (§2) At weeks 1, 6, and 12, serial whole blood samples were drawn and drug concentrations were determined. PK and PD were evaluated using standard non-compartmental analysis and a calcineurin inhibition assay. […] Whole blood lysates were evaluated for their ability to dephosphorylate a ^32P-labelled 19 amino acid peptide substrate in the presence of okadaic acid, a phosphatast type 1 and 2 inhibitor. Background phosphatase 2C activity (CsA and okadaic acid resistant activity) was determined and subtracted from each sample, with the assay performed in the presence and absence of excess added CsA. The remaining phosphatase activity was taken as calcineurin activity. Serum creatinine was measured from blood samples, as a measure of renal toxicity.
as §1
A measurement taken at 8 hours was used as peak concentration in the absence of a C2 measurement in this study. […] Cmin measurement could be a measurement taken at C0 or at C8, whichever measurement gave the lower measurement.
Percent fluctuation (FLU) was calculated as shown in Formula (2): [formula]

psoriasis patients = test: Psoriasis Area and Severity Index (PASI) vs trough concentration in psoriasis patients; assay type: in vivo, human; conditions: FIG. 2
Text: While % CNI is used in FIG. 1 to illustrate drug efficacy, there are other ways to measure transplant drug efficacy or calcineurin inhibitor drug efficacy. For example, in animal models, graft survival in transplantation is an indication of immunosuppressive drug efficacy. However, graft survival is an experimental model that takes a long time to measure and is complicated in that grafts may not survive for reasons other than the effective concentration of immunosuppressive agents. For example, prolonged cold ischemic time, donor/recipient mismatch or surgical technique may affect outcome of a graft. In human transplant patients, episodes of rejection may be indicators of failure of a calcineurin inhibitor. Other markers may be patient survival, in the case of transplant. For Psoriasis, a decrease in Psoriasis Area and Severity Index (PASI) score is an indication of effective treatment of psoriasis. A 75% reduction in PASI score is commonly held as a successful therapy.
Using PASI score as another indicator of drug efficacy, FIG. 2 illustrates that as drug concentration increases, the PASI score, an indicator of psoriasis severity, decreases. […] EC50 is an indication of the potency of the drug. […] FIG. 2 illustrates the relationship between trough drug concentration (C0) and PASI score on day 42 of treatment where E equals effect, in this case measured by PASI score.

[1] = system: stable renal transplant patients; conditions: human, in vivo, 12 week
Method: as §2
This discriminant analysis was performed using SPSS for Windows version 10.1 software available from SPSS Inc.
A measurement taken at 8 hours was used as peak concentration in the absence of a C2 measurement in this study. […] Cmin measurement could be a measurement taken at C0 or at C8, whichever measurement gave the lower measurement. […] Clinical diagnosis of renal toxicity may require an increase of, for example, 50% over baseline.

EC50 (calcineurin): 161.8+54.5 ng/mL
Cmax, mean (clinical): 159.59 ng/mL
t1/2, comparison between the two drugs (clinical): similar
time to maximum concentration (tmax), comparison between the two drugs (clinical): similar
C8, mean (clinical; 8 h): 54.327 ng/mL
concentration at 8 h (clinical; C8, mean): 37.3 ng/mL
Cmax (clinical; Cmax, mean): 188 ng/mL
EC50 (psoriasis patients; Homo sapiens, 1008 h, read-out: EC50, trough concentration required to achieve a 50% reduction in PASI, trough (C0), day 42 of treatment): 0.0135 ± 0.0081 µg/mL (≈ 0.0111 µM)
number of patients with normal renal function (actual group membership) [1]: 121
SMILES: C=C/C=C/C[C@@H](C)[C@@H](O)[C@H]1C(=O)N[C@@H](CC)C(=O)N(C)CC(=O)N(C)[C@@H](CC(C)C)C(=O)N[C@@H](C(C)C)C(=O)N(C)[C@@H](CC(C)C)C(=O)N[C@@H](C)C(=O)N[C@H](C)C(=O)N(C)[C@@H](CC(C)C)C(=O)N(C)[C@@H](CC(C)C)C(=O)N(C)[C@@H](C(C)C)C(=O)N1C [ISA247]
Emax, maximum possible mean PASI (psoriasis patients; trough (C0) concentration vs PASI on day 42): 22.9±7 PAS1
number of patients with renal toxicity (actual group membership) [1]: 26
